The record followed here is patent US20130281462A1, “ARYL DIAMIDINES AND PRODRUGS THEREOF FOR TREATING MYOTONIC DYSTROPHY” (University of Oregon, priority 2012, published 2013).

“Also recorded” adds a separate entry of the source. Read-outs that look alike come from different tables or passages of the source.

A short description of one data set: water solubility. The data set is classed as physicochemical.
The test system of data set [1] is INSR minigene exon 11 splicing in HeLa cells expressing 960 CUG repeats. The experiment in a line: INSR minigene splicing rescue in HeLa cell DM1 model. The data set is classed as cell-based. Particulars: for EC50: HeLa cell DM1 model, exon 11 inclusion, 16-18 hours, read-out: EC50 for rescue of INSR mis-splicing.
Data set [2] has as its system TNNT2 minigene exon 5 splicing in HeLa cells expressing 960 CUG repeats. Kind of data set: TNNT2 minigene splicing rescue in HeLa cell DM1 model. It is filed as cell-based. Particulars: for EC50: read-out: concentration needed to observe 50% rescue (EC50) of TNNT2 mis-splicing, exon 5 inclusion, 16-18 hours; for rescue of TNNT2 exon 5 mis-splicing: propamidine up to 130 μM.

The next data set deals with T1, MBNL1/(CUG)4 complex (Homo sapiens, UniProt Q9NR56).
T1 construct: The MBNL1 medium construct (1-260) was purified as previously described; made in house
T1 sequence (Q9NR56 1-260): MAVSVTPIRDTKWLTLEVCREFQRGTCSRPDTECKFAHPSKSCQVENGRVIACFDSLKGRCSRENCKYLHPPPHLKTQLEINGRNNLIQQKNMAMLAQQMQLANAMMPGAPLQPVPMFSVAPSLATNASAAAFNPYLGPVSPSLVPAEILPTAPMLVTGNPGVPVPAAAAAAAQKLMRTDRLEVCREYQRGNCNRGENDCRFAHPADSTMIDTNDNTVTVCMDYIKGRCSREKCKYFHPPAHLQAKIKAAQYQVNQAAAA
The experiment in a line: competitive EMSA (gel shift assay), disruption of the MBNL1/(CUG)4 complex. The data set is classed as binding.

The test system of the next data set is Clcn1 exon 7a. Kind of data set: Clcn1 exon 7a splicing in vastus muscle of HSALR DM1 mice. The data set is classed as in vivo. How it is done: (§1) Homozygous HSALR transgenic mice in line 20b (FVB inbred background) were previously described (Mankodi et al., Science 289″1769-1773, 2000). Gender-matched mice of 10-14 weeks of age were treated with heptamidine at the indicated dose by daily intraperitoneal injection for 7 days. Control mice received 5% glucose injections. Mice were sacrificed 1 d after the final injection and vastus (quadriceps) muscle was obtained for splicing analysis. Mice in the withdrawal (WD) group were treated with 30 mg/kg heptamidine for 7 days and then left untreated for 10 days before sacrifice. […] RNA was isolated, reverse transcribed, and amplified by PCR, and analyzed on agarose gels using a fluorimager as previously described (Warf et al., Proc. Natl. Acad. Sci. USA 106:18551-18556, 2009).
The HSA^LR DM1 mouse model expresses 220 CUG repeats under the skeletal promoter (Mankodi et al., Science 289″1769-1773, 2000). […] Wild type adult mice include exon 7a of the Clcn1 pre-mRNA at a level of 4±1% while HSA^LR mice include exon 7a at steady state levels of 47±1% (FIG. 3, note that exon 7a inclusion isoforms are subject to nonsense mediated decay).

Another data set relates to Atp2a1 exon 22. The experiment in a line: Atp2a1 exon 22 splicing in vastus muscle of HSALR DM1 mice. The data set is classed as in vivo. Here is the method: as §1
The MBNL regulated exon of Atp2a1 (exon 22) is included in the presence of MBNL proteins (positively regulated). Wild type adult mice included this exon 100±1% of the time (FIG. 4). When MBNL proteins are sequestered by the 220 CUG repeats present in HSALR mice, exon 22 inclusion drops to 23±3%. […] Additionally, after being treated with 30 mg/kg heptamidine for 7 d, mice went untreated for 10 days, and splicing of Clcn1 and Atp2a1 was examined. […] The severity of myotonia was graded by insertion of extracellular recording electrodes into muscle tissue (electromyography) under general anesthesia.

A further data set relates to HSALR mice. The experiment in a line: electromyography, myotonia grade in vastus muscle of HSALR mice. The data set is classed as in vivo. Conditions: 20 or 30 mg/kg for 7 days, controls grade 3. How it is done:
as §1
Electromyography was performed under general anesthesia as described previously (Kanadia, Science 302:1978-1980, 2003). Briefly, at least 10 needle insertions were performed in vastus muscle and myotonic discharges were graded on a four point scale: 0, no myotonia; 1, occasional myotonic discharge in less than 50% of needle insertions; 2, myotonic discharge with more than 50% of insertions; and 3, myotonic discharge with nearly all insertions.

Data set [3] concerns the target T2, MBNL1 (residues 1-260, medium construct) (UniProt Q9NR56 Q9NR56:1-260).
T2 sequence: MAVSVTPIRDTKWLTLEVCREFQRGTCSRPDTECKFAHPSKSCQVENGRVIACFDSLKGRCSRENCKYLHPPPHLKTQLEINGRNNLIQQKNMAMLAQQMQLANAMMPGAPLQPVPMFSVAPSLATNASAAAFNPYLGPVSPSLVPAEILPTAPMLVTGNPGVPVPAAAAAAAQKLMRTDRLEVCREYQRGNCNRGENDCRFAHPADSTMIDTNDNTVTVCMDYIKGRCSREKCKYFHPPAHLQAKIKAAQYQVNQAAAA
The experiment in a line: EMSA; 250 nM MBNL1, 0.5 nM RNA, 175 mM NaCl, 5 mM MgCl2, 20 mM Tris pH 7.5, heparin 0.1 mg/mL, RT; complex disrupted by diamidines (pentamidine IC50 39 uM, small-molecule competition). Conditions: label: 5'-32P; hairpin with UUCG cap. Here is the method:
The 5′ end labeled (CUG)₄ RNA was heated at 95° C. for 3 minutes in 250 mM NaCl, 25 mM MgCl₂, and 75 mM Tris pH 7.5 by heating at 95° C. for 3 minutes. The reaction was cooled on ice for 5 minutes, BSA and heparin were added, and the reaction cooled another 5 minutes. MBNL1 was then added to the RNA and incubated at room temperature (RT) for 10 minutes. Amidine derivative was added, followed by another 5 minute RT incubation, followed by the addition of bromophenol blue. The final reaction volume of 10 μL was incubated at RT for 25 minutes. Final reaction conditions were 0.5 nM (CUG)₄, 175 mM NaCl, 20 mM Tris pH 7.5, 5 mM MgCl₂, 2 mg/mL BSA, 0.1 mg/mL heparin, 1.25 mM β-mercaptoethanol, 1.25% (v/v) glycerol, 250 μM bromophenol blue, and 250 nM MBNL. Bromophenol blue was added at 250 μM since the activity of pentamidine is dependent upon bromophenol blue in vitro. […] IC₅₀ values were calculated as previously described (Warf et al., Proc. Natl. Acad. Sci. USA 106:18551-18556, 2009). In brief, gels were quantified using ImageQuant™ software (Molecular Dynamics/GE Healthcare, Piscataway, N.J.). The percent of RNA bound was determined by taking the ratio of the RNA:protein complex (including any well shifting) to the total RNA, per lane. IC₅₀ values were determined with KaleidaGraph (Synergy, Reading, Pa.) software using the equation: […]
In general terms: A gel shift assay detects complexes by their altered migration in electrophoresis.

[4] abbreviates: competitive EMSA, 250 nM MBNL, 0.5 nM (CUG)4, 250 μM bromophenol blue, ± standard deviation of triplicate, read-out: IC50 of diamidine analogs.
[5] abbreviates: 30 mg/kg for 7 days, then 10 days untreated.
[6] abbreviates: HSALR mice, daily intraperitoneal for 7 days.
Setting [7] is: competitive EMSA as in Example 1, Table 2, read-out: IC50 of diamidine derivatives.

As a reminder, the IC50 is the concentration needed to halve the response being measured. For the molecule `N=C(N)c1ccc(OCCCCCCCOc2ccc(C(=N)N)cc2)cc1` [Heptamidine], in “water solubility”, the water solubility entry is “retaining water solubility”. Besides, the results for the EC50 in data set [1] (Homo sapiens) and in data set [2] (Homo sapiens) were 9 ± 1 µM and 15 ± 6 µM, respectively. The IC50 on MBNL1/(CUG)4 complex (setting [4]) came to 20 ± 2 µM. For the same molecule, in the data set with Clcn1 exon 7a (setting [5]), the “Clcn1 splicing after withdrawal” value was “exon inclusion levels returned to control HSALA levels; also recorded: complete return to disease state splicing levels”. The “Clcn1 exon 7a inclusion” value in the data set on Clcn1 exon 7a (HSALR mice, 20 mg/kg daily intraperitoneal for 7 days, wild type 4±1%, HSALR 47±1%) stood at 6±1%. Moreover, in the data set on Clcn1 exon 7a (setting [6]), the “rescue of Clcn1 exon 7a mis-splicing” value is reported as “dose-dependent reduction of exon 7a inclusion; also recorded: Complete rescue”. In the data set on Atp2a1 exon 22 (setting [5]), the “Atp2a1 splicing after withdrawal” value was “exon inclusion levels returned to control HSALA levels; also recorded: complete return to disease state splicing levels”. Besides, the “rescue of Atp2a1 exon 22 missplicing” value with Atp2a1 exon 22 (HSALR mice, 30 mg/kg) is listed as “about 50%”. The “Atp2a1 exon 22 inclusion” value in the data set on Atp2a1 exon 22 (HSALR mice, 30 mg/kg/day for 7 days, wild type 100±1%, HSALR 23±3%) is on record as 62±4%. Also, the “rescue of Atp2a1 exon 22 mis-splicing” value in the data set on Atp2a1 exon 22 (setting [6]) is recorded as “full rescue with heptamidine could not be reached; also recorded: Partial rescue of missplicing”. For the same molecule, the “myotonia grade (electromyography)” value in the data set with HSALR mice is on record as “grade 1 (occasional myotonic discharge) or grade 0; also recorded: occasional myotonic discharges with less than 50% of insertions (grade 1) or no myotonia (grade 0)”.

As to `N=C(N)c1ccc(OCCCCCCCCCOc2ccc(C(=N)N)cc2)cc1` [Nonamidine], the “concentration that is toxic / causes significant cell death” value with HeLa cells (HeLa cells, TNNT2 splicing assay) amounted to 4 µM. In addition, the EC50 in [1] was 6 ± 1 µM. For the same molecule, the “rescue of TNNT2 exon 5 mis-splicing” value in [2] was “unable to rescue splicing defects before causing significant cell death”. Moreover, the 50% inhibitory concentration (IC50) at MBNL1/(CUG)4 complex (setting [4]) came out at 14 ± 1 µM.

As to `N=C(N)c1ccc(OCCCCCCCCOc2ccc(C(=N)N)cc2)cc1` [Octamidine], in the data set with HeLa cells, the “cell toxicity” value is listed as “toxicity issues”. For the same molecule, in data set [1], the EC50 stood at 7 ± 1 µM. The “rescue of TNNT2 exon 5 mis-splicing” value in data set [2] is recorded as “slight rescue of TNNT2 mis-splicing”. Besides, at MBNL1/(CUG)4 complex (setting [4]), the IC50 is 20 ± 1 µM.

Regarding `N=C(N)c1ccc(OCCCCCCOc2ccc(C(=N)N)cc2)cc1` [Hexamidine], the “cell toxicity” value in the data set on HeLa cells is listed as “low toxicity”. The EC50 in data set [1] (Homo sapiens) was found to be 15 ± 1 µM; in data set [2] (Homo sapiens) it was 12 ± 3 µM. Further, the IC50 at MBNL1/(CUG)4 complex (setting [4]) was 26 ± 2 µM.

Take `N=C(N)c1ccc(OCCCCCOc2ccc(C(=N)N)cc2)cc1` [Pentamidine, reference compound]: the values for the EC50 in [1] (Homo sapiens) and in data set [2] (Homo sapiens) were 31 ± 2 µM and 20 ± 4 µM, respectively. In addition, the “rescue of TNNT2 exon 5 mis-splicing” value in data set [2] is reported as “lowered exon 5 inclusion levels below that of wild type”. Also, the IC50 on MBNL1/(CUG)4 complex (setting [4]) came out at 39 ± 2 µM.

For `CC(=O)ONC(=N)c1ccc(OCCCCCOc2ccc(C(=N)NOC(C)=O)cc2)cc1` [compound 128, 1,5-bis(4-acetoxyamidinophenoxy)pentane (diacetyldiamidoximeester)], the “cell toxicity of prodrugs relative to parent amidine” value with HeLa cells is “less toxic than pentamidine”. Moreover, in data set [1] (HeLa cell splicing assay, FIG. 6), the “activity of pentamidine prodrugs in the INSR splicing assay” value is recorded as “showed activity in the splicing assay”.

In the case of `N=C(N)c1ccc(OCCCOc2ccc(C(=N)N)cc2)cc1` [Propamidine], in the data set on HeLa cells (human), the “concentration that is toxic / causes significant cell death” value was over 130 µM. For the same molecule, the EC50 in data set [1] (Homo sapiens) stood at 64 ± 10 µM. Also, the “rescue of TNNT2 exon 5 mis-splicing” value in [2] was “did not have the desired effect on TNNT2 mis-splicing”. The IC50 on MBNL1/(CUG)4 complex (setting [4]) amounted to 250 ± 10 µM.

Regarding `N=C(N)c1ccc(OCCCCOc2ccccc2)cc1` [drawing 8 n=4], the IC50 at MBNL1/(CUG)4 complex (setting [7]) is 209 µM.

Turning to `N=C(N)c1ccc(OCCCOc2ccccc2)cc1` [drawing 8 n=3], the IC50 at MBNL1/(CUG)4 complex (setting [7]) worked out at 281 µM.

For the molecule `N=C(N)c1ccc(OCCCCCCOc2ccccc2)cc1` [drawing 8 n=6], on MBNL1/(CUG)4 complex (setting [7]), the IC50 was 236 µM.

Turning to `N=C(N)c1ccc(OCCCc2ccccc2)cc1` [drawing 9 n=3], the IC50 on MBNL1/(CUG)4 complex (setting [7]) was 169 µM.

As to `N=C(N)c1ccc(OCCCCOc2ccc(C(=N)N)cc2)cc1` [Butamidine], the EC50 in data set [1] is 34 ± 7 µM. Further, in data set [2], the “rescue of TNNT2 exon 5 mis-splicing” value is “lowered exon 5 inclusion levels below that of wild type” and the EC50 was determined as 23 ± 5 µM. At MBNL1/(CUG)4 complex (setting [4]), the IC50 is 85 ± 17 µM.

`N=C(N)c1ccc(OCCc2ccccc2)cc1` [drawing 9 n=2]: on MBNL1/(CUG)4 complex (setting [7]), the IC50 was determined as 414 µM.

Regarding `N=C(N)c1ccc(OCCCCc2ccccc2)cc1` [drawing 9 n=4], the IC50 at MBNL1/(CUG)4 complex (setting [7]) was 212 µM.

On to `N=C(N)c1ccc(OCCCCCCCOc2ccccc2)cc1` [drawing 8 n=7], for which the IC50 on MBNL1/(CUG)4 complex (setting [7]) is 253 µM.

Turning to `N=C(N)c1ccc(OCCCCCOc2ccccc2)cc1` [drawing 8 n=5], the IC50 on MBNL1/(CUG)4 complex (setting [7]) turned out to be 199 µM.

For the molecule `CC(=O)ON=C(N)c1ccc(OCCCCCCCOc2ccc(C(N)=NOC(C)=O)cc2)cc1` [acetoxy-amdine derivative of heptamidine], the “cell toxicity of prodrugs relative to parent amidine” value in the data set with HeLa cells is “less toxic than heptamidine”.

Consider GCUGCUGUUCGCUGCUG (ssRNA) [(CUG)4 hairpin RNA], for which the binding result in data set [3] is reported as “binds”.
